{"source": "patent CN101993370A", "about": "“蓝萼甲素酸酯衍生物及其制备方法和应用” (SHANGHAI JINHAO PHARMACEUTICAL DEVELOPMENT Co Ltd, priority 2009, dated 2011)", "key": {"[1]": {"system": "5180 solid type [5180实体型]", "details": "cited from earlier work"}, "[2]": {"system": "HCA ascites type [HCA腹水型]", "details": "mice bearing HCA ascites type; cited from earlier work"}, "[3]": {"details": "in vivo; cited from earlier work"}, "[4]": {"details": "in vivo and in vitro; cited from earlier work"}, "[5]": {"details": "cited from earlier work"}, "[6]": {"details": "cited from earlier work", "remark": "listed apart in the source"}, "[7]": {"details": "cited from earlier work", "remark": "listed apart in the source"}, "[8]": {"system": "Lewis lung cancer [Lewis肺癌]", "details": "solid tumor; cited from earlier work"}, "[9]": {"system": "HCA solid type [HCA实体型]", "details": "cited from earlier work"}, "[10]": {"system": "5180 ascites type [5180腹水型]", "details": "mice bearing 5180 ascites type; cited from earlier work"}, "[11]": {"system": "lung cancer A549 tumor cells [肺癌A549肿瘤细胞]", "test": "MTT assay, A549 lung cancer tumor cells (Example 33)", "type": "cell-based", "details": "48 h, positive control"}}, "data": [{"smiles": "C=C1C(=O)[C@@]23[C@H](O)C[C@@H]4C(C)(C)C(=O)CC[C@@]4(C)[C@@H]2CC[C@@H]1[C@H]3O", "note": "[蓝萼甲素]", "values": [{"measurement": "inhibition of tumor growth", "setting": "[1]", "value": "能抑制"}, {"measurement": "life prolongation rate", "setting": "[2]", "value": "明显增加"}, {"measurement": "elimination", "setting": "[3]", "value": "药物在体内消除很快"}, {"measurement": "half-life", "setting": "[3]", "value": "半衰期短"}, {"measurement": "antitumor effect", "setting": "[4]", "value": "较强的抗肿瘤作用"}, {"measurement": "antitumor spectrum", "setting": "[4]", "value": "抗瘤谱较广"}, {"measurement": "dose dependence of antitumor effect", "setting": "[4]", "value": "呈剂量依赖性"}, {"measurement": "requirement for efficacy in vivo", "setting": "[5]", "value": "需大剂量长时间用药才能产生药效"}, {"measurement": "solubility in nonpolar solvents", "setting": "[6]; chloroform and other nonpolar solvents", "value": "易溶于氯仿等非极性溶剂"}, {"measurement": "solubility in water", "setting": "[6]; water", "value": "在水中不溶"}, {"measurement": "anticancer effect in vitro", "setting": "[7]", "value": "明显的抗癌作用"}, {"measurement": "inhibition of tumor growth", "setting": "[8]", "value": "能抑制"}, {"measurement": "inhibition of tumor growth", "setting": "[9]", "value": "能抑制"}, {"measurement": "life prolongation rate", "setting": "[10]", "value": "明显增加"}]}, {"smiles": "COc1cccc2c1C(=O)c1c(O)c3c(c(O)c1C2=O)C[C@@](O)(C(=O)CO)C[C@@H]3O[C@H]1C[C@H](N)[C@H](O)[C@H](C)O1", "note": "[阿霉素]", "values": [{"measurement": "A value (490nm)", "setting": "[11]; 0.01l/ml", "value": "0.452 ± 0.057"}, {"measurement": "inhibition rate", "setting": "[11]; 0.01l/ml", "value": 59.46, "unit": "%"}, {"measurement": "A value (490nm)", "setting": "[11]; 0.1μl/ml", "value": "0.406 ± 0.075"}, {"measurement": "inhibition rate", "setting": "[11]; 0.1μl/ml", "value": 73.31, "unit": "%"}, {"measurement": "A value (490nm)", "setting": "[11]; 1μl/ml", "value": "0.370 ± 0.087"}, {"measurement": "inhibition rate", "setting": "[11]; 1μl/ml", "value": 81.21, "unit": "%"}]}]}
